Experimental data published in US20150284331A1 (priority 2012, published 2015).

What was measured:
acetylcholinesterase = target: T1, acetylcholinesterase (Rattus norvegicus, UniProt P37136); experiment: biochemical; type: biochemical; conditions: rat cortex enzyme; for acetylcholinesterase inhibitory activity inhibition ratio (%): final concentration 4×10−5 mol/L
T1 construct: Acetylcholinesterase: rat cortex; from tissue; host or cells: rat cortex
T1 sequence (P37136 32-614): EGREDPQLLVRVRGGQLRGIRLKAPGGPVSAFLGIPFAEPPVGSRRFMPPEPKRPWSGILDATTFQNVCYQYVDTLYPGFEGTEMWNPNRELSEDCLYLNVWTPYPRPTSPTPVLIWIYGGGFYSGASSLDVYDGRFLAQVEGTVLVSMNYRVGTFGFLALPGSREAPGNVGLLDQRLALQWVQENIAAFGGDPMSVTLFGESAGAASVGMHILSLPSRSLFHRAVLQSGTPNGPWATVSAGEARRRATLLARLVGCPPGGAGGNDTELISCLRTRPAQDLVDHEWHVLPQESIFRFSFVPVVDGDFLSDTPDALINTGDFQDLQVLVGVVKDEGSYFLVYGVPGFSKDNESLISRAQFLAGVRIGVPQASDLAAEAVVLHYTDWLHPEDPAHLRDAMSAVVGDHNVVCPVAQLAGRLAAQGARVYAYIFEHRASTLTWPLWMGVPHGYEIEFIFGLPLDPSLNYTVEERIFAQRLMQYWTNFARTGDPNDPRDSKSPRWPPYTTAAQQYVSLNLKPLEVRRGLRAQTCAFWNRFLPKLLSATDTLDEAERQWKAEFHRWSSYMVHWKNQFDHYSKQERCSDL
Method: (§1) Sample processing: All samples were formulated as 10-2 mol/L solution by using 100% DMSO. 10-2 mol/L solution was used in microdetermination. 1 μL was taken to use in single tube experiment.
(§2) Solvent control: 0.4% DMSO was used in microdetermination. The inhibition ratio of the sample was obtained wherein the effect of solvent was deducted.
Acetylcholinesterase: rat cortex

butyrylcholinesterase = target: T2, butyrylcholinesterase (Rattus norvegicus, UniProt Q9JKC1); experiment: inhibition of butyrylcholinesterase (rat serum); type: biochemical; conditions: rat serum enzyme; final concentration 4×10−5 mol/L
T2 construct: Butyrylcholinesterase: rat serum; from tissue; host or cells: rat serum
T2 sequence (Q9JKC1 24-597): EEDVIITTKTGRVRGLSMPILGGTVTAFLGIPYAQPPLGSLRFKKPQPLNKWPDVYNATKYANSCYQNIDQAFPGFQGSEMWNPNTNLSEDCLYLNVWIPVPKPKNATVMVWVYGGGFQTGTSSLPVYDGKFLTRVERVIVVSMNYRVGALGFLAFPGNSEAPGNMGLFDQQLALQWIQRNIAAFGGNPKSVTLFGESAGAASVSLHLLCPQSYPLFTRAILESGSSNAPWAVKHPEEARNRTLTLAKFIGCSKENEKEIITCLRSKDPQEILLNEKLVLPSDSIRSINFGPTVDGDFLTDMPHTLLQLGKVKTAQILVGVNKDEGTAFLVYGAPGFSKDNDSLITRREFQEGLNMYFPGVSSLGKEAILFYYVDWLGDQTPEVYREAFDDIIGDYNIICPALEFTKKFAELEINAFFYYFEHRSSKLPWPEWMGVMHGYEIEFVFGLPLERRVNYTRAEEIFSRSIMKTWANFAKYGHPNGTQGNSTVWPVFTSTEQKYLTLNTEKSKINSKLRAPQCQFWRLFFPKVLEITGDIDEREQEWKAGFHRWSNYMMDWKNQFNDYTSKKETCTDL
Method: as §1, §2
Butyrylcholinesterase: rat serum

Compound	acetylcholinesterase inhibitory activity inhibition ratio (%) (acetylcholinesterase)	IC50 (acetylcholinesterase; read-out: acetylcholinesterase inhibitory activity IC50 (nmol))	butyrylcholinesterase inhibitory activity inhibition ratio (%) (butyrylcholinesterase)
COc1cc2c(cc1OC)C(=O)C(CC1(F)CCN(Cc3cc(F)c(F)cc3F)CC1)C2 (centres unmarked) [DC17, 2-((4-fluoro-1-(2,4,5-trifluorobenzyl)piperidin-4-yl)methyl)-5,6-dimethoxy-2,3-dihydro-1H-inden-1-one]	81.84%	2 nM	49.79%
COc1cc2c(cc1OC)C(=O)C(CC1(F)CCN(Cc3ccccc3C(F)(F)F)CC1)C2 (centres unmarked) [DC18, 2-((4-fluoro-1-(2-(trifluoromethyl)benzyl)piperidin-4-yl)methyl)-5,6-dimethoxy-2,3-dihydro-1H-inden-1-one]	93.80%		14.99%
COc1cc2c(cc1OC)C(=O)C(CC1(F)CCN(Cc3cccc(F)c3)CC1)C2 (centres unmarked) [DC21, 2-((4-fluoro-1-(3-fluorobenzyl)piperidin-4-yl)methyl)-5,6-dimethoxy-2,3-dihydro-1H-inden-1-one]	82.24%		75.02%
COc1cc2c(cc1OC)C(=O)C(CC1(F)CCN(Cc3cc(C(F)(F)F)cc(C(F)(F)F)c3)CC1)C2 (centres unmarked) [DC22, 2-((1-(3,5-bis(trifluoromethyl)benzyl)-4-fluoropiperidin-4-yl)methyl)-5,6-dimethoxy-2,3-dihydro-1H-inden-1-one]	58.49%		4.36%
COc1cc2c(cc1OC)C(=O)C(CC1(F)CCN(C(=O)c3ccccc3)CC1)C2 (centres unmarked) [DC23, 2-((1-benzoyl-4-fluoropiperidin-4-yl)methyl)-5,6-dimethoxy-2,3-dihydro-1H-inden-1-one]	57.09%		0.00%
COc1cc2c(cc1OC)C(=O)C(CC1(F)CCN(Cc3cc(F)cc(F)c3)CC1)C2 (centres unmarked) [DC27, 2-((1-(3,5-difluorobenzyl)-4-fluoropiperidin-4-yl)methyl)-5,6-dimethoxy-2,3-dihydro-1H-inden-1-one]	97.34%		18.07%
COc1cc2c(cc1OC)C(=O)C(CC1(F)CCN(Cc3cccc(C)c3)CC1)C2 (centres unmarked) [DC29, 2-((4-fluoro-1-(3-methylbenzyl)piperidin-4-yl)methyl)-5,6-dimethoxy-2,3-dihydro-1H-inden-1-one]	97.78%		64.92%
COc1cc2c(cc1OC)C(=O)C(CC1(F)CCN(Cc3cccc(C(F)(F)F)c3)CC1)C2 (centres unmarked) [DC30, 2-((4-fluoro-1-(3-(trifluoromethyl)benzyl)piperidin-4-yl)methyl)-5,6-dimethoxy-2,3-dihydro-1H-inden-1-one]	97.49%		5.18%
COc1cc2c(cc1OC)C(=O)C(CC1(F)CCN(CC3CCC3)CC1)C2 (centres unmarked) [DC31, 2-((1-(cyclobutylmethyl)-4-fluoropiperidin-4-yl)methyl)-5,6-dimethoxy-2,3-dihydro-1H-inden-1-one]	85.82%		35.06%
COc1cc2c(cc1OC)C(=O)C(CC1(F)CCN(CC3CCCC3)CC1)C2 (centres unmarked) [DC32, 2-((1-(cyclopentylmethyl)-4-fluoropiperidin-4-yl)methyl)-5,6-dimethoxy-2,3-dihydro-1H-inden-1-one]	90.10%		46.68%
COc1cc2c(cc1OC)C(=O)C(CC1(F)CCN(CC3CCCCC3)CC1)C2 (centres unmarked) [DC33, 2-((1-(cyclohexylmethyl)-4-fluoropiperidin-4-yl)methyl)-5,6-dimethoxy-2,3-dihydro-1H-inden-1-one]	90.10%		0.36%
COc1cc2c(cc1OC)C(=O)C(CC1(F)CCN(CC3CCCCCC3)CC1)C2 (centres unmarked) [DC34, 2-((1-(cycloheptylmethyl)-4-fluoropiperidin-4-yl)methyl)-5,6-dimethoxy-2,3-dihydro-1H-inden-1-one]	95.57%		68.48%
COc1cc2c(cc1OC)C(=O)C(CC1(F)CCN(Cc3cc(F)cc(F)c3F)CC1)C2 (centres unmarked) [DC35, 2-((4-fluoro-1-(2,3,5-trifluorobenzyl)piperidin-4-yl)methyl)-5,6-dimethoxy-2,3-dihydro-1H-inden-1-one]	94.39%		10.08%
COc1cc2c(cc1OC)C(=O)C(CC1(F)CCN(Cc3ccc(-c4ccccc4)cc3)CC1)C2 (centres unmarked) [DC36, 2-((1-([1,1′-biphenyl]-4-ylmethyl)-4-fluoropiperidin-4-yl)methyl)-5,6-dimethoxy-2,3-dihydro-1H-inden-1-one]	90.25%		5.18%
COc1cc2c(cc1OC)C(=O)C(CC1(F)CCN(Cc3ccccc3C#N)CC1)C2.Cl (centres unmarked) [DC37, 2-((4-((5,6-dimethoxy-1-oxo-2,3-dihydro-1H-inden-2-yl)methyl)-4-fluoropiperidin-1-yl)methyl)benzonitrile hydrochloride]	81.98%		20.80%
COc1cc2c(cc1OC)C(=O)C(CC1(F)CCN(Cc3cccc(F)c3)CC1)C2.Cl (centres unmarked) [DC38, 2-((4-fluoro-1-(3-fluorobenzyl)piperidin-4-yl)methyl)-5,6-dimethoxy-2,3-dihydro-1H-inden-1-one hydrochloride]	96.90%		72.57%
COc1cc2c(cc1OC)C(=O)C(CC1(F)CC3CCC(C1)N3Cc1cc(C)cc(C)c1)C2 (centres unmarked) [DC44, 2-((8-(3,5-dimethylbenzyl)-3-fluoro-8-azabicyclo[3.2.1]octan-3-yl)methyl)-5,6-dimethoxy-2,3-dihydro-1H-inden-1-one]	95.27%		34.15%
COc1cc2c(cc1OC)C(=O)C(CC1(F)CC3CCC(C1)N3Cc1ccc(F)cc1)C2 (centres unmarked) [DC45, 2-((3-fluoro-8-(4-fluorobenzyl)-8-azabicyclo[3.2.1]octan-3-yl)methyl)-5,6-dimethoxy-2,3-dihydro-1H-inden-1-one]	97.19%		82.56%
COc1cc2c(cc1OC)C(=O)C(CC1(F)CC3CCC(C1)N3Cc1ccc(C(C)(C)C)cc1)C2 (centres unmarked) [DC47, 2-((8-(4-(tert-butyl)benzyl)-3-fluoro-8-azabicyclo[3.2.1]octan-3-yl)methyl)-5,6-dimethoxy-2,3-dihydro-1H-inden-1-one]	75.33%		7.63%
COC(=O)c1ccc(CN2C3CCC2CC(F)(CC2Cc4cc(OC)c(OC)cc4C2=O)C3)cc1 (centres unmarked) [DC50, methyl 4-((3-((5,6-dimethoxy-1-oxo-2,3-dihydro-1H-inden-2-yl)methyl)-3-fluoro-8-azabicyclo[3.2.1]octan-8-yl)methyl)benzoate]	83.75%		0.00%
